Data from patent US9034863B2, “Compositions and methods for inhibiting entry of a hepatic virus” (The Board of Trustees of the University of Illinois, priority 2008, dated 2015).
Where two headings read alike, the source gives them in different places.

How the values were obtained:
HCV = experiment: Chronic HCV infection treated with IFN-β and ezetimibe, weekly RT-qPCR for 8 weeks; type: cell-based, Hepatitis C virus (HCV); conditions: alone, during 8 weeks
Text: Intracellular RNA was collected from triplicate wells weekly for 8 weeks post-treatment and HCV RNA was quantified by RT-qPCR.

HCVcc JFH-1 [1] = experiment: Chronic HCVcc infection in growing Huh7 cells, long-term treatment, RT-qPCR (FIG. 2); type: cell-based, Hepatitis C virus (HCV); conditions: alone, throughout ~70 days of treatment
Description: Cultures of growing Huh7 cells were inoculated with HCVcc JFH-1 at an MOT of 0.01 FFU/cell. Infected cultures were maintained for an additional 10 days to allow HCV RNA to reach steady-state levels. FIG. 2A, Cultures were mock treated, treated with ezetimibe alone (30 μM), IFN-α (100 U/ml) alone, or ezetimibe (30 μM) plus IFN-α (100 U/ml) in combination. Treatments were maintained as cultures were passaged. FIG. 2B, After 70 days IFN-α or combination ezetimibe plus IFN-α treatment, treatment was either continued (open shapes) or discontinued (filled shapes). […] Results are graphed as means±s.e.m. for triplicate samples. The data presented are representative of two independent experiments.
For experiments in growing cells, Huh7 cells seeded at 1×10^6 cells in a T75 cell culture flask (Corning) were infected with JFH-1 HCVcc at a MOI of 0.01 FFU/cell and subsequently cultured for 10 days to allow HCV RNA to reach steady-state levels. On day 10 post-infection, cells were split 1:4 and re-plated into T25 culture flasks (Corning). Twenty four hours post seeding, individual flasks were mock-treated with cDMEM or treated with cDMEM containing IFN-α (100 U/ml), ezetimibe (30 μM) or a combination of both IFN-α (100 U/ml) and ezetimibe (30 μM). Throughout the course of the experiment, fresh media with treatments was replenished every two days and cells were trypsinized just before reaching confluence and re-plated at a dilution of 1:3 to maintain active cell growth. […]
(§1) Total cellular RNA was purified using an ABI PRISM™ 6100 Nucleic Acid PrepStation (Applied Biosystems), as per the manufacturer's instructions. […] HCV JFH-1 and human GAPDH RNA transcript levels were determined relative to a standard curve derived from serial dilutions of plasmid containing the JFH-1 HCV cDNA or the human GAPDH coding sequence, respectively. […]
To confirm HCV clearance, drug treatments were subsequently discontinued on day 70 and HCV RNA levels were monitored for an additional 30 days.

HCVcc = experiment: HCV foci reduction assay, acute HCVcc infection of Huh7 cells; type: cell-based, Hepatitis C virus (HCV); conditions: for inhibition at 12.5 µM / inhibition at 25 µM: Hepatitis C virus, Huh-7, read-out: inhibition of HCV foci formation
HCVcc JFH-1 [2] = experiment: Acute HCVcc infection of Huh7 cells, HCV RNA by RT-qPCR; type: cell-based, Hepatitis C virus (HCV)
Description: For experiments in growing cells, Huh7 cells were seeded 24 hours prior to use at 4×10^3 cells in each well of a 96-well plate (BD Biosciences, San Jose, Calif.). For experiments in non-growing cells, Huh7 cells were seeded in 96-well BIOCOAT culture plates (BD Biosciences) at a density of 8×10^3 cells/well in cDMEM. Upon reaching 90% confluence, media was replaced with 200 μl cDMEM supplemented with 1% (v/v) DMSO (Sigma), and cells were cultured for an additional 20 days, replacing medium every 2 days (Sainz, Jr. & Chisari (2006) J. Virol. 80:10253-7; Choi, et al. (2009) Xenobiotica 39:205-17). Cells were infected with HCVcc JFH-1 at an MOI of 1.0 or 0.1 FFU/cell for 12 hours. Cells were mock-treated or treated with increasing concentrations of ezetimibe 6 hours prior to infection (PRE), during the time of infection for 12 hours (CO), or immediately following infection for 60 hours (POST). For RT-qPCR analysis, total cellular RNA was extracted in 1× Nucleic Acid Purification Lysis Solution (Applied Biosystems, Foster City, Calif.) from triplicate wells at indicated times post infection. For HCV E2-positive foci assay analysis, medium was removed and cells were fixed with 4% paraformaldehyde (w/v) (Sigma) 72 hours post-infection and immunohistochemical staining for HCV E2 was performed as described herein.
as §1, with “instructions. One μg of purified RNA was used for cDNA synthesis using the TAQMAN reverse transcription reagents (Applied Biosystems), followed by SYBR green RT-qPCR using an Applied Biosystems 7300 real-time thermocycler (Applied Biosystems).” for “instructions.”
Likewise dose-dependent and time-of-addition-dependent inhibition of HCV infection was observed when HCV RNA levels were quantified by RT-qPCR 24, 48 and 72 hours p.i.

Dengue virus (DNV) = experiment: Dengue virus plaque formation; type: cell-based; conditions: 12.5 or 25 μM
Description: To ensure that the inhibition observed was not due to ezetimibe-induced changes in cell proliferation or cytotoxicity, cellular ATP was measured as a read-out of Huh7 cell viability and proliferation and cellular toxicity by adenylate kinase release following treatment with increasing doses of ezetimibe. […] Furthermore, to test the specificity of the observed HCV inhibition, the effect of ezetimibe on entry of another flavivirus, Dengue virus (DNV), was assessed.

[3] = co-incubated with HCVcc for 12 h
[4] = pre-treatment 6 h prior to infection, compared to untreated cultures

O=C1[C@H](CC[C@H](O)c2ccc(F)cc2)[C@@H](c2ccc(O)cc2)N1c1ccc(F)cc1 [ezetimibe, 1-(4-fluorophenyl)-(3R)-[3-(4-fluorophenyl)-(3S)-hydroxypropyl]-(45)-(4-hydroxyphenyl)-2-azetidinone]
steady-state intracellular HCV RNA levels (HCV): did not reduce HCV infection | intracellular HCV steady-state RNA levels (HCVcc JFH-1 [1]): did not reduce | inhibition at 12.5 µM (HCVcc; [3]): 90% | inhibition at 25 µM (HCVcc; [3]): 99% | inhibition at 12.5 µM (HCVcc; [4]): 85% | inhibition at 25 µM (HCVcc; [4]): 95% | degree of inhibition of HCV foci formation (HCVcc; added to cells post-infection): greatly reduced | inhibition of HCV infection (HCV RNA levels) (HCVcc JFH-1 [2]; addition post-infection, 72 hours p.i.): ineffective | inhibition of HCV infection (HCV RNA levels) (HCVcc JFH-1 [2]; co-treatment): potently inhibited HCV infection | protection of cells from subsequent infection, duration (HCVcc JFH-1 [2]; pre-treatment with 25 μM for 6 hours before infection): at least 48 hours | reduction in DNV plaque formation (Dengue virus (DNV)): no significant reduction
